One block for each molecule: values may come before it.
How the values were obtained:
Assay in all cases: Standardized radiometric kinase assays, percentage of activity at 0.5 μM;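 further: Read-out is ³³P-labelled substrate protein phosphorylated by each kinase, captured on filters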
[1] = target: each individual kinase of the panel (Homo sapiens, UniProt O60285); settings: for % Activity: ARK5(h)
[2] = target: each individual kinase of the panel (Homo sapiens, UniProt P08581); settings: for % Activity: Met(h)
[3] = target: each individual kinase of the panel (Homo sapiens, UniProt Q13976); settings: for % Activity: PKG1α(h)
[4] = target: each individual kinase of the panel (Homo sapiens, UniProt O75676); settings: for % Activity: MSK2(h)
[5] = target: each individual kinase of the panel (Homo sapiens, UniProt Q96SB4); settings: for % Activity: SRPK1(h)
[6] = target: each individual kinase of the panel (Homo sapiens, UniProt P16591); settings: for % Activity: Fer(h)
[7] = target: each individual kinase of the panel (Homo sapiens, UniProt Q9UK32); settings: for % Activity: Rsk4(h)
[8] = target: each individual kinase of the panel (Homo sapiens, UniProt P07949); settings: for % Activity: Ret(h)
[9] = target: each individual kinase of the panel (Homo sapiens, UniProt P51812); settings: for % Activity: Rsk2(h)
[10] = target: each individual kinase of the panel (Homo sapiens, UniProt Q13177); settings: for % Activity: PAK2(h)
[11] = target: each individual kinase of the panel (Homo sapiens, UniProt P00533, T790M); settings: for % Activity: EGFR(T790M)(h)
[12] = target: each individual kinase of the panel (Homo sapiens, UniProt P36888); settings: for % Activity: Flt3(h)
[13] = target: each individual kinase of the panel (Homo sapiens, UniProt Q15375); settings: for % Activity: EphA7(h)
[14] = target: each individual kinase of the panel (Homo sapiens, UniProt Q9HCP0); settings: for % Activity: CK1γ1(h)
[15] = target: each individual kinase of the panel (Homo sapiens, UniProt Q15303); settings: for % Activity: ErbB4(h)
[16] = target: each individual kinase of the panel (Homo sapiens, UniProt Q13464); settings: for % Activity: ROCK-I(h)
[17] = target: each individual kinase of the panel (Homo sapiens, UniProt P21802); settings: for % Activity: FGFR2(h)
[18] = target: each individual kinase of the panel (Homo sapiens, UniProt Q86V86); settings: for % Activity: Pim-3(h)
[19] = target: each individual kinase of the panel (Homo sapiens, UniProt P08922)
[20] = target: each individual kinase of the panel (Homo sapiens, UniProt P16234); settings: for % Activity: PDGFRα(h)
[21] = target: each individual kinase of the panel (Homo sapiens, UniProt P04629); settings: for % Activity: TrkA(h)
[22] = target: each individual kinase of the panel (Homo sapiens, UniProt P10721, V560G); settings: for % Activity: cKit(V560G)(h)
[23] = target: each individual kinase of the panel (Homo sapiens, UniProt Q16832)
[24] = target: each individual kinase of the panel (Homo sapiens, UniProt P10721, D816H); settings: for % Activity: cKit(D816H)(h)
[25] = target: each individual kinase of the panel (Homo sapiens, UniProt P51955)
[26] = target: each individual kinase of the panel (Homo sapiens, UniProt Q9H4B4)
[27] = target: each individual kinase of the panel (Homo sapiens, UniProt Q00534)
[28] = target: each individual kinase of the panel (Homo sapiens, UniProt Q9UM73)
[29] = target: each individual kinase of the panel (Homo sapiens, UniProt P28482)

Sequence of each individual kinase of the panel (Homo sapiens, UniProt P08922) (P08922 28-2347 limits assumed): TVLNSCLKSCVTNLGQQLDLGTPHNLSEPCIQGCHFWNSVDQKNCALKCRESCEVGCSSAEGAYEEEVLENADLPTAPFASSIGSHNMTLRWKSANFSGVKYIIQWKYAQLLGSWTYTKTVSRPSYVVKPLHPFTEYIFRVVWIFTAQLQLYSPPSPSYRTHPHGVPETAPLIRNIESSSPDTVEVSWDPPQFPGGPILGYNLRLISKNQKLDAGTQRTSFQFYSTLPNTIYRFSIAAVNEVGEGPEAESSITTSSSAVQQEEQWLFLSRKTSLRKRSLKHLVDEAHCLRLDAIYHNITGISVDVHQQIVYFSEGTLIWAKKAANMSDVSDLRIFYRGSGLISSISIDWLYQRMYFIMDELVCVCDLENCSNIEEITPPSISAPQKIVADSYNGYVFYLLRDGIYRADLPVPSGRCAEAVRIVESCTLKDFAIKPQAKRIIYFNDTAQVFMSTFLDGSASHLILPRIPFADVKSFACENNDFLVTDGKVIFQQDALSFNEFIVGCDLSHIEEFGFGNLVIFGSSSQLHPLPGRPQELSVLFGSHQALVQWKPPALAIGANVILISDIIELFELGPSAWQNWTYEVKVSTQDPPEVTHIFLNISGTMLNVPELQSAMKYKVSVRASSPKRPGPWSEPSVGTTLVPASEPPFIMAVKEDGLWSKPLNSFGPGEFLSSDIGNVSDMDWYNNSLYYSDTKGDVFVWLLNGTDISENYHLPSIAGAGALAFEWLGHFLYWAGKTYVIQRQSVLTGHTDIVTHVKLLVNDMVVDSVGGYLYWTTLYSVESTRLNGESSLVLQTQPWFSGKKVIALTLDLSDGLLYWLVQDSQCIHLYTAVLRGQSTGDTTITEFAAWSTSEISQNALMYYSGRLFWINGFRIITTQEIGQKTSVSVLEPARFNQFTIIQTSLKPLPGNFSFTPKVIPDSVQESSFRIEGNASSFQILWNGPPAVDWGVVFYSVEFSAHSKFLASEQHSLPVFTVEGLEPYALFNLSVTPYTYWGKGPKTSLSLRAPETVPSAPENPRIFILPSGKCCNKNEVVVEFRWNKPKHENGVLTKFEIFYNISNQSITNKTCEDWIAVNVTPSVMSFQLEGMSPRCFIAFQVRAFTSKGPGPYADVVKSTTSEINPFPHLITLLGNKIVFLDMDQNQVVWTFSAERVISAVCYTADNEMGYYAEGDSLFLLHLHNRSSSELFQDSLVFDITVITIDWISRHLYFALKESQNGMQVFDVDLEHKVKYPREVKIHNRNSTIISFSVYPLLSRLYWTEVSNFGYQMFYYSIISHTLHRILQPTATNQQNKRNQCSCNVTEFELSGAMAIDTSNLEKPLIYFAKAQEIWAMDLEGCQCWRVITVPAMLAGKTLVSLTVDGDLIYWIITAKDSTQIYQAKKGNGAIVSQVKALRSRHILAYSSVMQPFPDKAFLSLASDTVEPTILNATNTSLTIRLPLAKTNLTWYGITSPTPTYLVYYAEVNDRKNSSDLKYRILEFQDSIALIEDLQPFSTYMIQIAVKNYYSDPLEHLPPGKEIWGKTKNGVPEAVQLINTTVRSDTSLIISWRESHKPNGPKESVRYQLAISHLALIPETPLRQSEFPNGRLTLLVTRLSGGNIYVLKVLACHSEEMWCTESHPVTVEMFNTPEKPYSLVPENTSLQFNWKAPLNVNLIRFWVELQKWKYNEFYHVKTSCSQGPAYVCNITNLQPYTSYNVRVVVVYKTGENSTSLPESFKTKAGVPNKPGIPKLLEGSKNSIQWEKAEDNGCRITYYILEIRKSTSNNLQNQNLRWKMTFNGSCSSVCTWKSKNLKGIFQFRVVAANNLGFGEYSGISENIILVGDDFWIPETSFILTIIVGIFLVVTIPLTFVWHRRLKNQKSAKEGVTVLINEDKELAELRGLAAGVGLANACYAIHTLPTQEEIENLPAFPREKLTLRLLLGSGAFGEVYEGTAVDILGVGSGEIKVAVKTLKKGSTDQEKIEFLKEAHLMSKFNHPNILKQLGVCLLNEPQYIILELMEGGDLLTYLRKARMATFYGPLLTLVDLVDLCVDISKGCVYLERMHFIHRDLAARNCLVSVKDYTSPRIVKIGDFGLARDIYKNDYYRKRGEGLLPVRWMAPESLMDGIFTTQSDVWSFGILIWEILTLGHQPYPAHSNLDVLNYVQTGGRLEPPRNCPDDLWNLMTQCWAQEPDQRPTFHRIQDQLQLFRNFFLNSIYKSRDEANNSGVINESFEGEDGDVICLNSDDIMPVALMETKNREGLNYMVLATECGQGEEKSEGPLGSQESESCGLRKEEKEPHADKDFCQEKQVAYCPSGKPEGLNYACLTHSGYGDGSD
Sequence of each individual kinase of the panel (Homo sapiens, UniProt Q15375) (Q15375 28-998 limits assumed): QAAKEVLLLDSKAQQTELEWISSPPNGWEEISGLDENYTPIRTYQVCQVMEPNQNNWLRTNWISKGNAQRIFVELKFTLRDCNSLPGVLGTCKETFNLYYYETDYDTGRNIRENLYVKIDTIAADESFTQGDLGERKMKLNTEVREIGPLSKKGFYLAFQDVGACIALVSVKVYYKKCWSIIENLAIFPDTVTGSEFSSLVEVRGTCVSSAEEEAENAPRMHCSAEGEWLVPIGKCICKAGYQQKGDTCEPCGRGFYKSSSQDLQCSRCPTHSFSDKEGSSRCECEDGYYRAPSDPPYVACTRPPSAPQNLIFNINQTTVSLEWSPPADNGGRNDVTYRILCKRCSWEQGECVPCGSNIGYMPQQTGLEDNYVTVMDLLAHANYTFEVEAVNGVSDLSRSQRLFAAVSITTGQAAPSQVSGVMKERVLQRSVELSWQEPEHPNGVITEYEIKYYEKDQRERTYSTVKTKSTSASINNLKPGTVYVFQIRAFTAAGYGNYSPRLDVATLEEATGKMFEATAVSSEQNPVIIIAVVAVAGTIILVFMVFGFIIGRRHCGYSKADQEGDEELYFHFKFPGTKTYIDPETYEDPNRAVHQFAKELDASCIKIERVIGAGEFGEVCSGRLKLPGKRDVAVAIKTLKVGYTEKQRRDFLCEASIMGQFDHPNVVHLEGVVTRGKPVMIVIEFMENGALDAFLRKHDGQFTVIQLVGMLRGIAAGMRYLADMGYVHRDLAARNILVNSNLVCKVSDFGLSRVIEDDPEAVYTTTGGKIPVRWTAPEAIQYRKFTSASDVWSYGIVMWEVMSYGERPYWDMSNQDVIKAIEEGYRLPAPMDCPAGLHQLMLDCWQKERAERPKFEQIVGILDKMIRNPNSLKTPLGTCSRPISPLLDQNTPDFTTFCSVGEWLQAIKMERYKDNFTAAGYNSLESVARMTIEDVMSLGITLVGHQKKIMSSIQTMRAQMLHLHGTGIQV
Sequence of each individual kinase of the panel (Homo sapiens, UniProt Q15303) (Q15303 26-1308 limits assumed): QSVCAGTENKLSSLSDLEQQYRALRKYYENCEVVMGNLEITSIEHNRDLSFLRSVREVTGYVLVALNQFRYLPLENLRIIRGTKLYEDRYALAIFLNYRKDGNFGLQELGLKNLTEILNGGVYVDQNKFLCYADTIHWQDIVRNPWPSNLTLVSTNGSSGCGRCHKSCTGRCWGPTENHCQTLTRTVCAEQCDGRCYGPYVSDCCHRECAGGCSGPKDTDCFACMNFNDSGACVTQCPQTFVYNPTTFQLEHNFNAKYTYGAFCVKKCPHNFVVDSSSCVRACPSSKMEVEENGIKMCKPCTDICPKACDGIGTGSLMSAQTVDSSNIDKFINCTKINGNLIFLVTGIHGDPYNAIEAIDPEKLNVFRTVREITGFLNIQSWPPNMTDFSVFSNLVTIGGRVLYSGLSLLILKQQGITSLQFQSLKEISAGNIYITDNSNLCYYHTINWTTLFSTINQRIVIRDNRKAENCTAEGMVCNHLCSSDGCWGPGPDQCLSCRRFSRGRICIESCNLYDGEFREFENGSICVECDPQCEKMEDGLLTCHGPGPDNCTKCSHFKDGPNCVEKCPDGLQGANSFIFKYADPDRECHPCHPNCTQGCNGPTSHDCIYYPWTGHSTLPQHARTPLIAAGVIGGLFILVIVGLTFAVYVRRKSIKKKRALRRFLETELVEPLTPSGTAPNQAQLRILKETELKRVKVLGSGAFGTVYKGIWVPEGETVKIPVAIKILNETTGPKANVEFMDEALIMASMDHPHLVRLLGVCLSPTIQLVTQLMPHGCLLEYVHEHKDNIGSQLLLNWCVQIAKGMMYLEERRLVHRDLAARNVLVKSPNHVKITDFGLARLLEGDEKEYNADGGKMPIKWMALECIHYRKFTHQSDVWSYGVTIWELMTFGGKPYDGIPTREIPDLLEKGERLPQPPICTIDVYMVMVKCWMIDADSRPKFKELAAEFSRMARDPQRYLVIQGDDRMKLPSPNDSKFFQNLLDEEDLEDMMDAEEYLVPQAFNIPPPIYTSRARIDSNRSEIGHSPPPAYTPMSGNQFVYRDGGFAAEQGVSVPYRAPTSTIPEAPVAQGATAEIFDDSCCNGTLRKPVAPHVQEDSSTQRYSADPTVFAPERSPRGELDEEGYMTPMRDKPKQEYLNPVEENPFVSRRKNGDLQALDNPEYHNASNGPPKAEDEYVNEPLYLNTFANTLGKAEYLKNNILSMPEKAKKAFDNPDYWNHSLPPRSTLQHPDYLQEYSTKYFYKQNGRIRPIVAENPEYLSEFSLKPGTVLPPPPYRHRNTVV
Sequence of each individual kinase of the panel (Homo sapiens, UniProt Q13177) (Q13177 2-524 limits assumed): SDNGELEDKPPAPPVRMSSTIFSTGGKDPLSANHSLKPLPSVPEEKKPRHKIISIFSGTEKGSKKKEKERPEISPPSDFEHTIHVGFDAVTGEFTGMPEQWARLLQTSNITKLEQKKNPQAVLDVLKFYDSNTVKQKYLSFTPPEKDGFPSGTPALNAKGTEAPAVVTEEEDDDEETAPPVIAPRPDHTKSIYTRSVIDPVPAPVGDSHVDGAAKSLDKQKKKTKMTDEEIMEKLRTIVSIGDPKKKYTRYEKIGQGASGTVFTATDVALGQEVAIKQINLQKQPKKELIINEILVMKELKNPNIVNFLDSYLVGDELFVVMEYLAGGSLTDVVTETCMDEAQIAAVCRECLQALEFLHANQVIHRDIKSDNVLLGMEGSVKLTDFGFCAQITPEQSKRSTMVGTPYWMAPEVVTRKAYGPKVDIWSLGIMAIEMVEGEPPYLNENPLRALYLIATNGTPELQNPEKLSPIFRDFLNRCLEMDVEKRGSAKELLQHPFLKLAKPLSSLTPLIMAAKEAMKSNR

SMILES: Clc1ccccc1Nc1nc2c(-c3nnc[nH]3)cccc2c2cnccc12 [A]
- % Activity [1]: 39%
- % Activity [2]: 22%
- % Activity [3]: 40%
- % Activity [4]: 51%
- % Activity [5]: 107%
- % Activity [6]: 90%
- % Activity [7]: 12%
- % Activity [8]: 43%
- % Activity [9]: 13%
- % Activity [10]: 106%
- % Activity [11]: 53%
- % Activity [12]: 5%
- % Activity [13]: 96%
- % Activity [14]: 30%
- % Activity [15]: 77%
- % Activity [16]: 94%
- % Activity [17]: 93%
- % Activity [18]: 12%
- % Activity ([19]; Ros(h)): 90%
- % Activity [20]: 97%
- % Activity [21]: 6%
- % Activity [22]: 38%
- % Activity ([23]; DDR2(h)): 90%
- % Activity [24]: 8%

SMILES: NC(=O)c1cccc2c1nc(Nc1cccc(Cl)c1)c1ccncc12 [B]
- % Activity [1]: 98%
- % Activity [2]: 96%
- % Activity [3]: 34%
- % Activity [4]: 65%
- % Activity ([25]; NEK2(h)): 95%
- % Activity [5]: 91%
- % Activity [6]: 103%
- % Activity [7]: 41%
- % Activity [8]: 73%
- % Activity [9]: 40%
- % Activity [10]: 108%
- % Activity [11]: 76%
- % Activity [12]: 7%
- % Activity [13]: 90%
- % Activity [14]: 71%
- % Activity [15]: 77%
- % Activity ([26]; Plk3(h)): 102%
- % Activity [16]: 97%
- % Activity ([27]; CDK6/cyclinD3(h)): 63%
- % Activity ([28]; ALK(h)): 100%
- % Activity [17]: 94%
- % Activity [18]: 65%
- % Activity [20]: 105%
- % Activity [21]: 23%
- % Activity [22]: 33%
- % Activity [24]: 9%

SMILES: C#Cc1cccc(Nc2nc3cc(C(=O)O)ccc3c3cncnc23)c1 [drawing 1135]
- ARK5 percentage of activity [1]: −8%
- ERK2 percentage of activity [29]: 5%
- MAPK2 percentage of activity [29]: −4%
- MET percentage of activity [2]: −22%
- PRKG1 percentage of activity [3]: −5%
- MSK2 percentage of activity [4]: 44%
- NEK2 percentage of activity [25]: 23%
- SRPK1 percentage of activity [5]: 34%
- FER percentage of activity [6]: −3%
- RPS6KA6 percentage of activity [7]: 22%
- RET percentage of activity [8]: 14%
- RPS6KA3 percentage of activity [9]: 34%
- PAK2 percentage of activity [10]: −12%
- EGFR(T790M) percentage of activity [11]: 8%
- FLT3 percentage of activity [12]: 58%
- EPHA7 percentage of activity [13]: 1%
- CK1 gamma 1 percentage of activity [14]: −5%
- ERBB4 percentage of activity [15]: −26%
- PLK3 percentage of activity [26]: −6%
- ROCK-I percentage of activity [16]: 3%
- CDK6/cyclinD3 percentage of activity [27]: −8%
- ALK percentage of activity [28]: −12%
- FGFR2 percentage of activity [17]: −7%
- PIM3 percentage of activity [18]: 13%
- ROS percentage of activity [19]: −10%
- PDGFRA percentage of activity [20]: −9%
- TRKA percentage of activity [21]: 10%
- cKit(V560G) percentage of activity [22]: −11%
- DDR2 percentage of activity [23]: −9%
- cKit(D816H) percentage of activity [24]: −1%

Further lines, results first:

- ARK5 percentage of activity [1]: 14%
- ERK2 percentage of activity [29]: 21%
- MET percentage of activity [2]: −16%
- PRKG1 percentage of activity [3]: −4%
- MSK2 percentage of activity [4]: 41%
- NEK2 percentage of activity [25]: 73%
- SRPK1 percentage of activity [5]: 63%
- FER percentage of activity [6]: 6%
- RPS6KA6 percentage of activity [7]: 65%
- RET percentage of activity [8]: 35%
- RPS6KA3 percentage of activity [9]: 53%
- PAK2 percentage of activity [10]: 1%
- EGFR(T790M) percentage of activity [11]: 16%
- FLT3 percentage of activity [12]: 90%
- EPHA7 percentage of activity [13]: 5%
- CK1 gamma 1 percentage of activity [14]: 10%
- ERBB4 percentage of activity [15]: 17%
- PLK3 percentage of activity [26]: −1%
- ROCK-I percentage of activity [16]: 12%
- CDK6/cyclinD3 percentage of activity [27]: 12%
- ALK percentage of activity [28]: −20%
- FGFR2 percentage of activity [17]: 11%
- PIM3 percentage of activity [18]: −2%
- ROS percentage of activity [19]: 5%
- PDGFRA percentage of activity [20]: −2%
- TRKA percentage of activity [21]: 56%
- cKit(V560G) percentage of activity [22]: 69%
- DDR2 percentage of activity [23]: 12%
- cKit(D816H) percentage of activity [24]: 87%
SMILES: C#Cc1cccc(Nc2nc3cc(C(=O)O)ccc3c3cnccc23)c1 [drawing 1137]

- ARK5 percentage of activity [1]: 5%
- ERK2 percentage of activity [29]: 15%
- MET percentage of activity [2]: −6%
- PRKG1 percentage of activity [3]: 4%
- MSK2 percentage of activity [4]: 9%
- NEK2 percentage of activity [25]: 13%
- SRPK1 percentage of activity [5]: 7%
- FER percentage of activity [6]: 8%
- PAK2 percentage of activity [10]: 4%
- EGFR(T790M) percentage of activity [11]: 43%
- FLT3 percentage of activity [12]: 100%
- EPHA7 percentage of activity [13]: 0%
- CK1 gamma 1 percentage of activity [14]: 7%
- ERBB4 percentage of activity [15]: 33%
- PLK3 percentage of activity [26]: 0%
- ROCK-I percentage of activity [16]: 11%
- CDK6/cyclinD3 percentage of activity [27]: 6%
- ALK percentage of activity [28]: −2%
- FGFR2 percentage of activity [17]: 9%
- ROS percentage of activity [19]: −3%
- PDGFRA percentage of activity [20]: 5%
- TRKA percentage of activity [21]: 62%
- cKit(V560G) percentage of activity [22]: 75%
- DDR2 percentage of activity [23]: 5%
- cKit(D816H) percentage of activity [24]: 63%
SMILES: NC(=O)c1ccc2c(c1)nc(Nc1cccc(Cl)c1)c1ccncc12 [drawing 1138]

— US8168651B2, “Protein kinase modulators” (Cylene Pharmaceuticals, Inc., priority 2008, dated 2012)
